In patent US20040077656A1, “Quinolines and nitrogenated derivatives thereof substituted in 4-position by a piperazine-containing moiety and their use as antibacterial agents” (priority 2000, published 2004) one finds MIC data, which are given here for two molecules.

The structures appear in SMILES notation. Structures can show the parent of a compound that is named as a salt. Where two headings read alike, the source gives them in different places.

For this assay, the system named is S. aureus Oxford, S. aureus WCUH29, S. pneumoniae 1629, S. pneumoniae N1387, S. pneumoniae ERY 2. The assay is described as follows: MIC of test compounds against various organisms. The format is cell-based. How it is done:
The MIC (μg/ml) of test compounds against various organisms was determined: S. aureus Oxford, S. aureus WCUH29, S. pneumoniae 1629, S. pneumoniae N1387, S. pneumoniae ERY 2.

In general, MIC refers to the lowest concentration found to suppress growth. As for `COc1ccc2nccc([C@@H](O)CN3CCN(CCNC(=O)c4cccs4)CC3)c2c1` [Example 7, Thiophene-2-carboxylic acid (2-{14[(R)-2-hydroxy-2-(6-methoxy-quinolin-4-yl)-ethyl]-piperazin-1-yl}-ethyl)-amide Dioxalate Salt], the MIC (against one or more of S. aureus Oxford, S. aureus WCUH29, S. pneumoniae 1629, S. pneumoniae N1387, S. pneumoniae ERY 2, read-out: MIC) was < 1 µg/mL.

Consider `COc1ccc2nccc([C@@H](O)CN3CCN(CCCCc4ccccc4)CC3)c2c1` [Example 12, (R)-1-(6-Methoxy-quinolin-4-yl)-2-[4-(4-phenyl-butyl)piperazin-1-yl]-ethanol Dioxalate], for which the MIC is < 1 µg/mL.
